Measured values published in article PMC5884524, “A high content, high throughput cellular thermal stability assay for measuring drug-target engagement in living cells” (PLoS ONE, 2018).
Several values for one entry are separate records, joined by “and”; a condition that tells them apart may be missing. Identical values can stand only once. Like-named read-outs stand apart in the source and are kept apart here. One block for each molecule: values may come before it. Peptide text beside a SMILES is read from it. * marks the point of attachment. Cbz = O=C(OCc1ccccc1)*

Assays:
Chk1 [1] = target: T1, Chk1 (Homo sapiens, UniProt O14757); test: HCIF-CETSA (CETSA by immunofluorescence), low well volume heating, HT29 cells; assay type: cell-based; parameters: Thermal response profile of Chk1 in HT29 cells detected by immunofluorescent imaging with the EP691Y antibody; endogenous in cells; host or cells: HT29; conditions: for EC50: 25 μL media
T1 sequence (O14757 1-476): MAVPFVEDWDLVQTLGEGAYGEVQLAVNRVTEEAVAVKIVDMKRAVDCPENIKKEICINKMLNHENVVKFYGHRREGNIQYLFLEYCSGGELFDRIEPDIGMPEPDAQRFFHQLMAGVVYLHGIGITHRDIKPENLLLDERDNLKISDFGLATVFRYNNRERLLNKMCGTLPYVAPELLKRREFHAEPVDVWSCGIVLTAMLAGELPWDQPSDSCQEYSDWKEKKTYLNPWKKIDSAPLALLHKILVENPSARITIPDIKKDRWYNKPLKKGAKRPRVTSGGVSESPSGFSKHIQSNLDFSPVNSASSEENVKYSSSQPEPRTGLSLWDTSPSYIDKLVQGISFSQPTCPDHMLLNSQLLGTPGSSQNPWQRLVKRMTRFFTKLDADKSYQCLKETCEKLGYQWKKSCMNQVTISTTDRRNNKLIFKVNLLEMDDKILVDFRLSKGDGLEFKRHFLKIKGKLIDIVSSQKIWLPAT
Protocol: Compounds were serially diluted in DMSO to 200-times the final assay concentration then diluted 1:200 in media (without FCS). The cell media was removed and replaced with 25 μL of compound in media and incubated at 37°C, 5% CO2 for 10 minutes. The plate was sealed with an aluminum plate seal and heated by floating in a pre-heated water bath (Grant Instruments W14) for 3 minutes. 75 μL of room temperature media (without FCS or compound) was added and the plate incubated at room temperature for 5 minutes. […] Plates were imaged on an Operetta high content imager using a 20x objective and analyzed using Harmony software.

Chk1 [2] = target: T1, Chk1; test: Chk1 autophosphorylation (pS296) by immunoblotting and densitometry, HT29 cells; assay type: cell-based; parameters: Thermal response profile of Chk1 in HT29 cells detected by immunofluorescent imaging with the EP691Y antibody; endogenous in cells; host or cells: HT29; conditions: for IC50: HT29, 10 min
Protocol: (§1) Immunoblotting was conducted as previously described.

HT29 cells = test: S-phase arrest by Hoechst 33342 imaging, HT29 cells; assay type: cell-based, human; conditions: HT29, 2.5 mM for 18 hours, n = 6 wells ± SD
Protocol: (§2) Single cell immunofluorescent imaging was conducted as previously described in CellCarrier 96WP or CellCarrier Ultra 96WP (6005550 or 6055300, Perkin Elmer) and imaged on an Operetta high content imager (Perkin Elmer) using a 10, 20 or 40x objective then analyzed using Harmony software (Perkin Elmer).

Chk1 [3] = target: T1, Chk1; test: Nuclear pChk1 (S317, S345) by single cell immunofluorescence, HT29 cells; assay type: cell-based; parameters: Thermal response profile of Chk1 in HT29 cells detected by immunofluorescent imaging with the EP691Y antibody; endogenous in cells; host or cells: HT29; conditions: HT29, 2.5 mM for 18 hours
Protocol: as §2

Chk1 [4] = target: T1, Chk1; test: HCIF-CETSA (CETSA by immunofluorescence), low well volume heating, U2OS cells; assay type: cell-based; conditions: 10 min
Protocol: 10 000 cells were plated per well of a CellCarrier Ultra 96WP (6055300, Perkin Elmer) and allowed to adhere overnight. Compounds were serially diluted in DMSO to 200-times the final assay concentration then diluted 1:200 in media (without FCS). The cell media was removed and replaced with 25 μL of compound in media and incubated at 37°C, 5% CO2 for 10 minutes. The plate was sealed with an aluminum plate seal and heated by floating in a pre-heated water bath (Grant Instruments W14) for 3 minutes. 75 μL of room temperature media (without FCS or compound) was added and the plate incubated at room temperature for 5 minutes. Cells were fixed by the addition of 100 μL paraformaldehyde (7.4% in PBS) at room temperature for 15 minutes. Cells were washed 3 times with PBS and Chk1 detected with anti-Chk1 rabbit EP691Y monoclonal antibody (Ab40866, Abcam) and an AlexaFluor488 anti-rabbit secondary antibody (A-11034, Thermo Fisher Scientific). Plates were imaged on an Operetta high content imager using a 20x objective and analyzed using Harmony software.

Chk1 [5] = target: T1, Chk1; test: Chk1 autophosphorylation (pS296) by immunoblotting and densitometry, U2OS cells; assay type: cell-based; conditions: 10 min, identical cellular conditions to HCIF-CETSA (Fig 6E)
Protocol: as §1

Chk1 [6] = target: T1, Chk1; parameters: endogenous in cells; conditions: U2OS cells; read-out: CETSA classic EC50; cited from earlier work
Chk1 [7] = target: T1, Chk1; test: Chk1 thermal stability by immunofluorescence, PBS immersion heating, HT29 cells; assay type: cell-based; parameters: Thermal response profile of Chk1 in HT29 cells detected by immunofluorescent imaging with the EP691Y antibody; endogenous in cells; host or cells: HT29; conditions: HT29, 1–10 μM for 30 minutes, heated to 46, 49, 52 or 55°C
From the text: (§3) Plates were heated as follows: (i) sealed with adhesive aluminum PCR plate foil and then floated or submerged in a water bath (Grant Instruments W14) containing water pre-heated to the desired temperature or (ii) 1 L of DPBS containing magnesium and calcium (D1283, Sigma) was placed in a clean water bath (SUB6, Grant Instruments) and heated to the required temperature. The media was removed from the wells of the CellCarrier plate and the plate submersed in the DPBS so that all wells were full of DPBS and the plate was not touching the bottom of the water bath. The plate was incubated in the DPBS for 3 minutes, removed, the hot DPBS removed and replaced with 100 μL room temperature DPBS and then incubated at room temperature for 5 minutes. In some experiments, the DPBS was substituted for live cell imaging solution (LCIS, 20 mM Hepes, 140 mM NaCl, 2.5 mM KCl, 1.8 mM CaCl2, 1.0 mM MgCl2, pH 7.4).
as §2

Chk1 [8] = target: T1, Chk1; test: Chk1 thermal stability by immunofluorescence, sealed plate submerged in water bath, HT29 cells; assay type: cell-based; parameters: Thermal response profile of Chk1 in HT29 cells detected by immunofluorescent imaging with the EP691Y antibody; endogenous in cells; host or cells: HT29; conditions: HT29, 10 μM for 30 minutes, HU treated or untreated, sealed plate 55°C
From the text: as §3, §2

Chk1 [9] = target: T1, Chk1; test: HCIF-CETSA (CETSA by immunofluorescence), low well volume heating, HT29 cells; assay type: cell-based; parameters: Thermal response profile of Chk1 in HT29 cells detected by immunofluorescent imaging with the EP691Y antibody; endogenous in cells; host or cells: HT29; conditions: HT29, 10 minute incubation, 50 μL media, 51°C (Fig 6D)
Chk1 [10] = target: T1, Chk1; parameters: Thermal response profile of Chk1 in HT29 cells detected by immunofluorescent imaging with the EP691Y antibody; endogenous in cells; host or cells: HT29; conditions: HT29 cells; read-out: CETSA classic EC50; cited from earlier work
[11] = HT29, 0–40 μM inhibitor, 10 min, 49°C (Fig 8A), read-out: EC50, decrease in nuclear Chk1 fluorescence following heating

- EC50 (Chk1 [1]; [11]): 1300 ± 300 nM
- IC50 (Chk1 [2]; same dilution series and conditions as HCIF-CETSA (Fig 8B), read-out: IC50, S296 phosphorylation): 500 nM
SMILES: N#Cc1cc2c(cn1)[nH]c1ncc(-c3ccc(CN4CCCCC4)cc3)cc12 [GNE-900, reference compound]

- Increase in nuclear Chk1 pS317 (Chk1 [3]): 1.9 fold
- Increase in nuclear Chk1 pS345 (Chk1 [3]): 1.6 fold
SMILES: NC(=O)NO [HU, Hydroxyurea]
- Cells exhibiting evidence of S-phase arrest (HT29 cells): 71.4 ± 0.7%

SMILES: CC(C)C[C@@H](C=O)NC(=O)[C@H](CC(C)C)NC(=O)[C@H](CC(C)C)NC(=O)OCc1ccccc1 [MG-132, reference compound] (Cbz-Leu-Leu-Leu-aldehyde)
- Effect on temperature induced decrease in Chk1 nuclear fluorescence (Chk1 [1]; HT29, 5 μM for 2 hours, then DMSO or 3 μM V158411, 49 or 52°C): did not block

- EC50 (Chk1 [4]; U2OS, 25 μL media, 49°C (Fig 6C)): 1400 ± 300 nM
- IC50 (Chk1 [5]): ~110 nM
- EC50 (Chk1 [1]; [11]): 2000 ± 900 nM
- EC50 (Chk1 [1]; HT29, 10 min, 49°C (Fig 6B), read-out: HCIF-CETSA EC50, mean of three independent experiments): 1700 ± 400 nM
- EC50 (Chk1 [1]; HT29, 10 min, 49°C (Fig 6B), read-out: HCIF-CETSA EC50, single values of three independent experiments): 1900 nM and 1200 nM
- EC50 (Chk1 [1]; HT29, 10 min pre-incubation, heated to 46°C (Fig 6A), read-out: EC50, reduction in Chk1 nuclear immunofluorescence): 1900 nM
- EC50 (Chk1 [1]; HT29, 10 min pre-incubation, heated to 49°C (Fig 6A), read-out: EC50, reduction in Chk1 nuclear immunofluorescence): 1900 nM
- EC50 (Chk1 [1]; HT29, 10 min pre-incubation, heated to 52°C (Fig 6A), read-out: EC50, reduction in Chk1 nuclear immunofluorescence): 2500 nM
- Effect on Chk1 autophosphorylation (Chk1 [2]; HT29, 0–10 μM for 30 minutes, HU treated and untreated cells (Fig 4B)): inhibited Chk1 autophosphorylation
- IC50 (Chk1 [2]; identical cellular conditions to HCIF-CETSA (Fig 6E), read-out: IC50, Chk1 autophosphorylation (pS296)): ~160 nM
- Effect on thermostabilization of total Chk1 or phosphorylated Chk1 (Chk1 [8]): no effect
- EC50 (Chk1 [9]): 1000 nM
SMILES: CN(C)CC(C)(C)COc1ccc2[nH]c(-c3cc(NC(=O)c4cnn(Cc5ccccc5)c4)c[nH]c3=O)cc2c1 [V158411]
- Effect on mean nuclear Chk1 fluorescence in unheated cells (Chk1 [4]; unheated U2OS, 0–20 μM): increased the mean nuclear Chk1 fluorescence
- EC50 (Chk1 [6]): 2300 ± 1200 nM
- Effect on mean nuclear Chk1 intensity after PBS immersion heating (Chk1 [7]): did not alter the mean nuclear Chk1 intensity
- EC50 (Chk1 [10]): 3300 ± 3400 nM
